These results are taken from PMC7667029, “A Targeted Computational Screen of the SWEETLEAD Database Reveals FDA-Approved Compounds with Anti-Dengue Viral Activity” (mBio, 2020).

The test system of series [1] is dengue virus. Nature of the series: Extracellular and intracellular virus quantification in Huh7 cells. It counts as cell-based. The conditions noted are these: IC90 dose (spautin-1 2.4 μM, vandetanib 3.6 μM), Huh7, 24 hpi. On the procedure:
(§1) FIG 5 Vandetanib and spautin-1 inhibit dengue maturation and egress in a VPS34-independent manner. […] Cells were pretreated for 1 h, infected for 1 h at an MOI of 0.5 PFU/cell, and posttreated for an additional 23 h. N = 4, one-way ANOVA with Dunnett’s multiple-comparison test. ns, not significant (P > 0.05); **, P < 0.01; ****, P < 0.0001. (C) Huh7 cells transfected with a luciferase-expressing RNA replicon were treated with 3 μM vandetanib (orange) or 1% DMSO vehicle control (black) for 1 h prior to transfection and up to 52 h posttransfection. Luciferase intensity was quantified as a measure of viral protein abundance. Luciferase intensity was shown as relative light units (RLU). The use of an RNA replicon that is directly transfected into cells reflects only translation and RNA replication steps of viral infection, not viral packaging or cell exit. N = 4, two-way ANOVA with Sikak’s multiple-comparison test. […] (D) VPS34 was not required for spautin-1 or vandetanib anti-dengue activity. Wild-type and VPS34 knockout Huh7 cells were treated with 5 μM spautin-1, 5 μM vandetanib, or DMSO. Cells were pretreated, infected at an MOI of 0.5, and posttreated as described above for panels A and B. At 24 hpi, cellular supernatant was collected and titered by plaque assay. N ≥ 3. One-way ANOVA with Dunnett’s multiple-comparison test; *, P < 0.05; **, P < 0.01; ***, P < 0.001; ****, P < 0.0001.
After 1 h, virus inoculum was aspirated and replaced with medium containing compounds or 1% DMSO. After 24-h total infection, extracellular virus was collected in cellular supernatant and quantified by plaque assay. To collect intracellular virus, cells were washed with PBS, incubated for 3 min at 4°C with high-salt buffer (1 M NaCl, 50 mM sodium bicarbonate [pH 9.5]) to detach cell-associated extracellular virus ([63]), washed twice with PBS, detached with 0.25% trypsin-EDTA, and isolated by centrifugation (500 × g, 5 min, 4°C). Infected cell pellets were resuspended in 750 μl cell culture medium, lysed by repeated freeze/thaw in liquid nitrogen followed by 37°C water bath. Debris was removed by centrifugation (3,200 × g, 5 min, 4°C), and infectious intracellular virus was quantified by BHK-21 plaque assay.

Series [2] concerns DENV-2 luciferase-expressing replicon. The series can be described thus: Replicon luciferase assay in Huh7 cells. In kind it is cell-based, dengue virus. As to conditions: 3 μM vandetanib, Huh7, up to 52 h posttransfection. On the procedure:
as §1, with “Wild-type and VPS34 knockout Huh7 cells were treated with 5 μM spautin-1, 5 μM vandetanib, or DMSO. Cells were pretreated, infected at an MOI of 0.5, and posttreated as described above for panels A and B. At 24 hpi, cellular supernatant was collected and titered by plaque assay. N ≥ 3. One-way ANOVA with Dunnett’s multiple-comparison test; *, P < 0.05; **, P < 0.01; ***, P < 0.001; ****, P < 0.0001.” left out
A dengue replicon derived from the dengue virus strain 16681 expressing Renilla luciferase and dengue nonstructural proteins has been previously established ([7], [64]). […] Transfected cells were harvested and analyzed using the Renilla luciferase assay system (Promega BioSystems). Luciferase intensity was measured with a GloMax luminometer (10-s signal integration; Promega BioSystems).
On the technique in general: In antiviral work, replicon cells carry a viral genome segment that copies itself.

The subject of series [3] is dengue virus. Nature of the series: Antiviral activity in VPS34 knockout Huh7 cells. It counts as cell-based. As to conditions: 5 μM compound, MOI 0.5, 24 hpi. On the procedure:
FIG 5 Vandetanib and spautin-1 inhibit dengue maturation and egress in a VPS34-independent manner. […] Cells were pretreated for 1 h, infected for 1 h at an MOI of 0.5 PFU/cell, and posttreated for an additional 23 h. N = 4, one-way ANOVA with Dunnett’s multiple-comparison test. ns, not significant (P > 0.05); **, P < 0.01; ****, P < 0.0001. (C) Huh7 cells transfected with a luciferase-expressing RNA replicon were treated with 3 μM vandetanib (orange) or 1% DMSO vehicle control (black) for 1 h prior to transfection and up to 52 h posttransfection. Luciferase intensity was quantified as a measure of viral protein abundance. Luciferase intensity was shown as relative light units (RLU). The use of an RNA replicon that is directly transfected into cells reflects only translation and RNA replication steps of viral infection, not viral packaging or cell exit. N = 4, two-way ANOVA with Sikak’s multiple-comparison test. […] (D) VPS34 was not required for spautin-1 or vandetanib anti-dengue activity. Wild-type and VPS34 knockout Huh7 cells were treated with 5 μM spautin-1, 5 μM vandetanib, or DMSO. Cells were pretreated, infected at an MOI of 0.5, and posttreated as described above for panels A and B. At 24 hpi, cellular supernatant was collected and titered by plaque assay. N ≥ 3. One-way ANOVA with Dunnett’s multiple-comparison test; *, P < 0.05; **, P < 0.01; ***, P < 0.001; ****, P < 0.0001. […]

The test system of a further series is BHK-21 and Huh7 cells. Nature of the series: Cell viability by WST assay in uninfected cells (Table S1). It counts as cell-based. The conditions noted are these: cell viability relative to vehicle at these doses. On the procedure: Supplementary file : TABLE S1 Summary of hits for lead compounds ARDP0006 and ST-148 screened for anti-dengue activity in tissue culture cells. Hit compounds were tested for anti-dengue activity and cell toxicity in tissue culture cell lines. Antiviral activity is summarized as follows: −, not antiviral, with titer greater than 50% of vehicle; +, weakly antiviral, with titer between 20 and 50% of vehicle; ++, moderately antiviral, with titer between 5 and 20% of vehicle; +++, highly antiviral, with titer less than 5% of vehicle. Toxicity at these doses is represented as follows: −, nontoxic, with cell viability greater than 80% of vehicle; +, mild toxicity, with cell viability between 60 and 80% of vehicle; +++, high toxicity, with cell viability less than 60% of vehicle. Data summarized here are depicted graphically in Fig. S1 and Fig. 2C, 3C, and [4]C. […]
Supplementary file : FIG S1 Initial screening of eliminated hit compounds for anti-dengue activity in tissue culture cells. […] Cell viability in uninfected cells in the presence of compounds for 48 h was measured by WST assay (gray). […]
Mock-infected wells were used to determine cell viability in the presence of chemical compounds compared to 1% DMSO vehicle control. Cell viability was determined using the WST-1 kit (Abcam) per the manufacturer’s instructions. […]

The conditions of series [4]: ref PubChem database, cited from earlier work.

Entries after “also recorded” stand apart in the source; their conditions may differ. Bounds are passed on as bounds.

Turning to `COc1cc2c(Nc3ccc(Br)cc3F)ncnc2cc1OCC1CCN(C)CC1` [Vandetanib, vandetanib], in the series with dengue virus [1], the Extracellular viral titer result is on record as “significantly reduced; also recorded: reduced extracellular virus” and the Infectious intracellular virus entry was “unchanged; also recorded: abundant intracellular virus”. Further, the “Luciferase production of replicon” value in series [2] is listed as “no effect on luciferase production; also recorded: no significant differences”. For the same compound, the “Antiviral activity in VPS34 knockout cells” value in the series with dengue virus [3] was “retained significant antiviral activity; also recorded: retained their ability to limit dengue virus egress”. Further, the Toxicity result in the series on BHK-21 and Huh7 cells is listed as “− (nontoxic, with cell viability greater than 80% of vehicle)”. Also, the median lethal dose (LD50) in series [4] (Oral, single dose) is > 1000 mg/kg. Moreover, in series [4] (healthy mice), the “Acute toxicity in words (Table S2)” value is given as “only mildly toxic”.

What is called LD50 is the dose at which mortality reaches 50%.
